Counter-ions that a name gives are not always drawn.
Target: NMDA receptor
Test: MK-801 binding test ([3H]MK-801-binding assay, rat membrane specimen)
Details: NMDA receptor affinity, [3H]MK-801 4 nM in assay, Ki computed from IC50
Protocol: 1) Preparation of Specimens of Rat Meninges:
The whole brain was taken out from 10-week-age SD rats (30 heads, by Nippon SLC), and the cerebellum was removed from it. A 0.32 M sucrose solution was added to the part containing the cerebrum, cut in a mixer, and homogenized with a Teflon™ homogenizer. This was centrifuged at 2800 rpm and 4° C. for 15 minutes, and the resulting supernatant was again centrifuged at 15000 g and 4° C. for 20 minutes. The pellets were suspended in 50 mM Tris-HCL (pH 7.5) containing 0.08% Triton X-100, and kept statically on ice for 30 minutes, then centrifuged at 15000 g and 4° C. for 20 minutes. The pellets were suspended in 50 mM Tris-HCl (pH 7.5) added thereto, and centrifuged at 15000 g and 4° C. for 20 minutes. 50 mM Tris-HCl (pH 7.5) was again added to the pellets, and centrifuged in the same manner as before. The pellets were suspended in 20 ml of 50 mM Tris-HCl (pH 7.5) added thereto, and homogenized with a Teflon™ homogenizer. The membrane specimen was divided into small tubes and stored in a deep freezer (−80° C.). Before use, this washed twice with 5 mM Tris-HCl (pH 7.5) of five times that of the membrane specimen. Its concentration was controlled at 1 mg protein/ml with 5 mM Tris-HCl (pH 7.5) added to it, and this was used for assay.
50 μl of the rat membrane specimen (1 mg protein/ml) was added to a solution of a test compound dissolved in 1 μl of DMSO.

SMILES	Ki
CN1CCC(C2(O)c3ccccc3CC2(C)C)CC1 (stereo not shown) [Example 1, 2,2-Dimethyl-1-(1-methylpiperidin-4-yl)indan-1-ol monofumarate]	1400 nM
Cc1ccc2c(c1)C(O)(C1CCN(C)CC1)C(C)(C)C2 (stereo not shown) [Example 6, 2,2,6-trimethyl-1-(1-methylpiperidin-4-yl)indan-1-ol]	880 nM
CN1CCC(C2(O)c3cc(F)ccc3CC2(C)C)CC1 (stereo not shown) [Example 9]	930 nM
CN1CCC(C2(O)c3ccc(Br)cc3CC2(C)C)CC1 (stereo not shown) [Example 15]	860 nM
CN1CCC(C2(O)c3cc(Cl)c(F)cc3CC2(C)C)CC1 (stereo not shown) [Example 28]	1000 nM
CN1CCC(C2(O)c3cc(Br)cc(F)c3CC2(C)C)CC1 (stereo not shown) [Example 32]	440 nM
CN1CCC(C2(O)c3c(ccc(F)c3Br)CC2(C)C)CC1 (stereo not shown) [Example 34]	1800 nM
CN1CCC(C2(O)c3c(Br)ccc(F)c3CC2(C)C)CC1 (stereo not shown) [Example 36]	1900 nM
COc1c(F)ccc2c1C(O)(C1CCN(C)CC1)C(C)(C)C2 (stereo not shown) [Example 44]	930 nM
CN1CCC(C2(O)c3ccccc3CCC2(C)C)CC1 (stereo not shown) [Example 53]	4100 nM
COc1ccc(F)c2c1C(O)(C1CCN(C)CC1)C(C)(C)C2 (stereo not shown) [Example 85]	6200 nM
CCOc1c(F)ccc2c1C(O)(C1CCN(C)CC1)C(C)(C)C2 (stereo not shown) [Example 98]	8400 nM
COc1cc(F)c2c(c1OC)C(O)(C1CCN(C)CC1)C(C)(C)C2 (stereo not shown) [Example 101]	2100 nM
COc1c(F)c(F)cc2c1C(O)(C1CCN(C)CC1)C(C)(C)C2 (stereo not shown) [Example 108]	5600 nM
COc1c(C#N)cc(F)c2c1C(O)(C1CCN(C)CC1)C(C)(C)C2 (stereo not shown) [Example 113]	900 nM
Cc1ccc2c(c1)C(O)(CC(C)(C)N)C(C)(C)C2 (stereo not shown) [Example 131, 1-(2-Amino-2-methylpropyl)-2,2,6-trimethylindan-1-ol fumarate]	4800 nM
CN1CCC(C2(O)c3c(c(F)cc4c3OCC4)CC2(C)C)CC1 (stereo not shown) [Example 139, 5-Fluoro-7,7-dimethyl-8-(1-methylpiperidin-4-yl)-2,6,7,8-tetrahydro-2H-indeno[4,5-b]furan-8-ol fumarate]	5000 nM
CN1CCC(C23OCCOc4c(F)ccc(c42)CC3(C)C)CC1 (stereo not shown) [Example 143, 4-(9-Fluoro-5,5-dimethyl-2,3,5,6-tetrahydro-4aH-indeno[1,7-ef][1,4]dioxepin-4a-yl-1-methylpiperidine fumarate]	700 nM
COc1c(F)ccc2c1C1(CCC(CN3CCCC3)O1)C(C)(C)C2 (stereo not shown) [Example 145]	8400 nM

Reference: patent publication US20070197594A1, “Cyclic amine derivative or salt thereof” (ASTELLAS PHARMA INC., priority 2004, published 2007)
